# What was measured:
# [1] = Cytotoxicity against human HCC44 cells after 96 hrs by Cell Titer Glo assay; assay type: functional, cell-based; details: HCC44, 96 h
# A549 = assay: Cytotoxicity against human A549 cells after 96 hrs by Cell Titer Glo assay; assay type: functional, cell-based; details: A549, 96 h
# [2] = Ratio IC50 for compound to mithramycin IC50 for mouse 3T3 cells; assay type: cell-based; details: NIH3T3 cells, read-out: Ratio IC50
Compound,IC50 [1] [nM],IC50 (A549) [nM],selectivity ratio [2]
CO[C@H]1[C@H](O)C[C@@H](O[C@@H]2C[C@H](Oc3cc4cc5c(c(O)c4c(O)c3C)C(=O)[C@@H](O[C@H]3C[C@H](O[C@H]4C[C@H](O[C@H]6C[C@@](C)(O)[C@@H](O)[C@H](C)O6)[C@H](O)[C@@H](C)O4)[C@H](O)[C@@H](C)O3)[C@H]([C@H](OC)C(=O)O)C5)O[C@H](C)[C@H]2OC(C)=O)O[C@@H]1C [CHROMOMYCIN SA3],> 33300,> 50000,–
CO[C@H]1[C@H](O)C[C@@H](O[C@@H]2C[C@H](Oc3cc4cc5c(c(O)c4c(O)c3C)C(=O)[C@@H](O[C@H]3C[C@H](O[C@H]4C[C@H](O[C@H]6C[C@@](C)(O)[C@@H](O)[C@H](C)O6)[C@H](O)[C@@H](C)O4)[C@H](O)[C@@H](C)O3)[C@H]([C@H](OC)C(=O)[C@@H](O)[C@@H](C)O)C5)O[C@H](C)[C@H]2OC(C)=O)O[C@@H]1C [DEACETYL CHROMOMYCIN A3],670,1200,–
COC(=O)[C@@H](OC)[C@@H]1Cc2cc3cc(O[C@H]4C[C@@H](O[C@@H]5C[C@@H](O)[C@H](OC)[C@@H](C)O5)[C@H](OC(C)=O)[C@@H](C)O4)c(C)c(O)c3c(O)c2C(=O)[C@H]1O[C@H]1C[C@H](O[C@H]2C[C@H](O[C@H]3C[C@@](C)(O)[C@@H](OC(=O)C(C)C)[C@H](C)O3)[C@H](O)[C@@H](C)O2)[C@H](O)[C@@H](C)O1,56,–,–
CO[C@@H]1[C@H](O)C[C@@H](O[C@@H]2C[C@H](Oc3cc4cc5c(c(O)c4c(O)c3C)C(=O)[C@@H](O[C@H]3C[C@@H](O[C@H]4C[C@@H](O[C@H]6C[C@](C)(O)[C@@H](OC(C)=O)[C@H](C)O6)[C@H](O)[C@@H](C)O4)[C@H](O)[C@@H](C)O3)[C@H]([C@H](OC)C(=O)[C@@H](O)[C@@H](C)O)C5)O[C@H](C)[C@@H]2OC(C)=O)O[C@@H]1C [CHROMOMYCIN A3],1,42,–
CO[C@H]1[C@H](O)C[C@@H](O[C@@H]2C[C@H](Oc3cc4cc5c(c(O)c4c(O)c3C)C(=O)[C@@H](O[C@H]3C[C@H](O[C@H]4C[C@H](O[C@H]6C[C@@](C)(O)[C@@H](OC(=O)C(C)C)[C@H](C)O6)[C@H](O)[C@@H](C)O4)[C@H](O)[C@@H](C)O3)[C@H]([C@H](OC)C(=O)[C@@H](O)[C@@H](C)O)C5)O[C@H](C)[C@H]2OC(C)=O)O[C@@H]1C [CHROMOMYCIN A2],0.26,0.44,–
CO[C@H]1[C@H](O)C[C@@H](O[C@@H]2C[C@H](Oc3cc4cc5c(c(O)c4c(O)c3C)C(=O)[C@@H](O[C@H]3C[C@H](O[C@H]4C[C@H](O[C@H]6C[C@@](C)(O)[C@@H](OC(C)=O)[C@H](C)O6)[C@H](O)[C@@H](C)O4)[C@H](O)[C@@H](C)O3)[C@H]([C@H](OC)C(=O)O)C5)O[C@H](C)[C@H]2OC(C)=O)O[C@@H]1C [CHROMOMYCIN SA],210,560,–
CO[C@H]1[C@H](O)C[C@@H](O[C@@H]2C[C@H](Oc3cc4cc5c(c(O)c4c(O)c3C)C(=O)[C@@H](O[C@H]3C[C@H](O[C@H]4C[C@H](O[C@H]6C[C@@](C)(O)[C@@H](OC(=O)C(C)C)[C@H](C)O6)[C@H](O)[C@@H](C)O4)[C@H](O)[C@@H](C)O3)[C@H]([C@H](OC)C(=O)O)C5)O[C@H](C)[C@H]2OC(C)=O)O[C@@H]1C [CHROMOMYCIN SA2],780,1500,–
CO[C@H]1[C@H](O)C[C@@H](O[C@@H]2C[C@H](Oc3cc4cc5c(c(O)c4c(O)c3C)C(=O)[C@@H](O[C@H]3C[C@H](O[C@H]4C[C@H](O[C@H]6C[C@@](C)(O)[C@@H](O)[C@H](C)O6)[C@H](O)[C@@H](C)O4)[C@H](O)[C@@H](C)O3)[C@H]([C@H](OC)C(=O)[C@@H](O)[C@@H](C)O)C5)O[C@H](C)[C@H]2O)O[C@@H]1C,> 50000,> 50000,–
COC(=O)[C@@H](OC)[C@@H]1Cc2cc3cc(O[C@H]4C[C@@H](O[C@@H]5C[C@@H](O)[C@H](OC)[C@@H](C)O5)[C@H](OC(C)=O)[C@@H](C)O4)c(C)c(O)c3c(O)c2C(=O)[C@H]1O[C@H]1C[C@H](O[C@H]2C[C@H](O[C@H]3C[C@@](C)(O)[C@@H](O)[C@H](C)O3)[C@H](O)[C@@H](C)O2)[C@H](O)[C@@H](C)O1,3400,–,–
CO[C@H](C(=O)[C@@H](O)[C@@H](C)O)[C@@H]1Cc2cc3cc(O[C@H]4C[C@@H](O[C@H]5C[C@@H](O)[C@H](O)[C@@H](C)O5)[C@H](O)[C@@H](C)O4)c(C)c(O)c3c(O)c2C(=O)[C@H]1O[C@H]1C[C@@H](O[C@H]2C[C@@H](O[C@H]3C[C@](C)(O)[C@H](O)[C@@H](C)O3)[C@@H](O)[C@@H](C)O2)[C@H](O)[C@@H](C)O1 [PLICAMYCIN],–,–,1500
